Experimental data as given in patent US20090175924A1, “COATED STENT” (BIONERIS AB, priority 2002, published 2009).

Tests used:
[1] = test system: mice; assay type: in vivo; conditions: intravenous
Method: A method described by S. Irwin (Psychopharmacologica, 1968, 13, 222) was used to detect general physiological, behavioural and toxic effects of a series of compounds. The tested compounds were administered intra veneously to mice (3 animals per compound and dose) and the behavioural modification and neurotoxicity symptoms such as mortality, sedation, excitation, aggressiveness, straub, writhes, convulsions, tremor, exophtalamos, salivation, lacrimation, piloerection, defecation, fear, traction, reactivity to touch, loss of righting reflex, sleep, motor incoordination, muscle tone, stereotypies, catalepsy, grasping, ptosis, difficulty in respiration, corneal reflex, analgesia and gait were recorded compared to a control group, Furthermore, rectal temperature and pupil diameter were recorded.

[2] = test system: Wistar rats; assay: Neointima formation after balloon catheter injury of the carotid artery in rats; assay type: in vivo, rat; conditions: for elasticity of the vessel walls (microscopic investigation): compared to the control group; for Neointima formation / Reduction (%) of neointima formation: rat carotid, 14 days post-operatively, 1 mg/kg/hr; for Neointima formation: subcutaneous osmotic minipumps; for Reduction (%) of neointima formation: versus saline control, osmotic minipumps
Method: The effects on neointima formation was assessed after inducing vessel injury in rats with a balloon catheter. Neointima formation is an important part in the process of restenosis. Adult mate Wistar rats (250-260 g) were housed under standard conditions and were fed with commercial rat chow and water ad libitum. During the experiment D-myo-inositol-1,2,6-trisphosphate (IP3) was administered via subcutaneously operated osmotic minipumps with a dose level of 1 mg/kg/hr. A control group received saline solution by osmotic minipumps. The animals were anaesthetised with an intraperitoneal injection of ketamine, 100 mg/kg, (MTC Pharmaceuticals, Cambridge, Ontario, Canada) and xylazine, 10 mg/kg (Bayer Inc., Etobicoke, Ontario, Canada). Using a dissecting microscope, the left carotid artery was exposed on the ventral side of the neck via a midline incision. The bifurcation of the carotid artery was located and two ligatures were placed around the external carotid artery, which was then tied off with the distal ligature. After temporarily occluding the internal carotid artery with a vascular clamp, a small incision was made between the two ligatures placed around the external carotid artery to introduce the endothelial denudation device, an inflated […] Fogarty embolectomy catheter (Baxter Healthcare, Buckinghamshire, UK). Each animal was de-endothelialised by three passages of the catheter and the carotid artery was tied off proximal to the incision hole. The clamp was removed and the pulse of the carotid artery was rechecked. The skin incision was closed with a single suture. 14 days post-operatively, the animals were sedated. An abdominal incision was made to access the abdominal aorta for insertion of a cannula connected to a perfusion apparatus. The animals where killed by an overdose of anaestetic and then perfused with heparinised phosphate buffered saline (pH 7.4) at a rate of 100 ml/min per kg body weight and a pressure of 120 mm Hg. After replacement of saline, 4% paraformaldehyde in isotonic saline was introduced at the same flow rate. After fixation in situ, the carotids were dissected free. Three mid-carotid segments, approximately 10 mm long were rinsed and placed in 4% parafomaldehyde for another 16 hours before embedding and freezing in Tissue-Tek OCT media (Miles Inc., Elkhart, Ind., USA). Frozen sections were stained with Movat's pentachrome and immunohistochemistry was performed using antibodies in order to examine the process of restenosis by measurement of the neointima formation.
In a procedure similar to the one described in Example 3, D-3,4,5-tri-O-(phenylcarbamoyl)myo-inositol-1,2,6-trisphosphate (PP 11-201) was added with the result shown below: […]

[3] = test system: Human pulmonary artery smooth muscle cells (HPASMCs); assay: FGF2-stimulated proliferation of smooth muscle cells (3H-thymidine incorporation); assay type: cell-based; conditions: 1 nM FGF2, 24 hours
Method: Vascular smooth muscle cell proliferation contributes to restenosis after coronary angioplasty. Human pulmonary artery smooth muscle cells (HPASMCs) were maintained in Medium 231 supplemented with Smooth muscle Growth Supplement. The cells, medium and supplement were obtained from Caascade Biologics Inc., Portland, Oreg., USA.
The cells were grown as monolayer culture in 100-mm diameter plastic tissue culture dishes (Nunc, Roskilde, Denmark) with 10 ml medium in 37° C. in a humidified atmosphere of 95% air and 5% CO2 and subcultured at 4- to 6-day intervals. For measurement of cell growth, cells were seeded at density 5.0*10^3/well in 96 well dishes in DMEM+0.2% FBS for 3 days. Culture medium was then removed and cells were seeded in DMEM+0.2% FBS with 1 nM of basic fibroblast growth factor (FGF2). The addition of FGF2 induces cell proliferation of the HPASMCs. The FGF2 used was a recombinant human substance from Boehringer Mannheim Biochemica, Espoo, Finland. Various concentrations of D-myo-inositol-1,2,6-trisphosphate (IP3) were added and the number of parallel wells in each treatment was four. The proliferation of cells was analysed after 24 hours of incubation by labelling each well with 0.2 μCi of ^3H-thymidine for two hours. After that the cells were trypsinated and harvested on a filter. A Melt-on scintillator (Meltilex™ A; Wallac, Turku, Finland) was allowed to melt on the filter. The radioactivity of the sheets was counted on a liquid scintillator counter (1450 Microbeta Wallac, Turku, Finland).
Stimulation of proliferation was inhibited by the addition of IP3 with the following result:
In a procedure similar to the one described in Example 1, D-3,4,5-tri-O-(phenylcarbamoyl) myo-inositol-1,2,6-trisphosphate (PP 11-201) was added with the result shown below: […]

For “1,2-O-ethylene-β-D-fructopyranoside-2,3,4-trisphosphate”, the “Dose where effects are observed” value [1] was >512 mg/kg.
`O=P(O)(O)OC1CN(CCc2ccccc2)CC(OP(=O)(O)O)C1OP(=O)(O)O` (centres unmarked) [1,5-dideoxy-1,5-imino-N-(2-phenylethyl)arabinitol-2,3,4-trisphosphate] was tested, and the “Dose where effects are observed” value [1] was >512 mg/kg.
In the case of `CCCCC(=O)OC1C(OC(=O)CCCC)C(OP(=O)(O)O)C(OP(=O)(O)O)C(OP(=O)(O)O)C1OC(=O)CCCC` [D-3,4,5-tri-O-pentanoyl-myo-inositol-1,2,6-trisphosphate], the “Dose where effects are observed” value [1] is reported as 128 mg/kg.
For `CCC(=O)OC1C(OC(=O)CC)C(OP(=O)(O)O)C(OP(=O)(O)O)C(OP(=O)(O)O)C1OC(=O)CC` [D-3,4,5-tri-O-propanoyl-myo-inositol-1,2,6-trisphosphate], the “Dose where effects are observed” value [1] was 256 mg/kg.
For `O=C(O)CP(=O)(O)O[C@@H]1[C@H](OP(=O)(O)CC(=O)O)[C@H](O)[C@@H](O)[C@H](O)[C@H]1OP(=O)(O)CC(=O)O` [D-myo-inositol-1,2,6-tris(carboxymetylphosphonate)], the “Dose where effects are observed” value [1] was >512 mg/kg.
With `O=P(O)(O)O[C@@H]1[C@H](OP(=O)(O)O)[C@H](O)[C@@H](O)[C@H](O)[C@H]1OP(=O)(O)O` [IP3, D-myo-inositol-1,2,6-trisphosphate] the “elasticity of the vessel walls (microscopic investigation)” value [2] was “improved”, the Neointima formation [2] was 0.48 mm^2 and the “Reduction (%) of neointima formation” value [2] was 57%. The “Dose where effects are observed” value [1] was >512 mg/kg, the “inhibition (%) of FGF2-stimulated proliferation” value (shortened to “inhibition (%)”) ([3]; 1 μM) was 61% and the “inhibition (%)” value ([3]; 10 μM) was 44%. The “inhibition (%)” value ([3]; 100 μM) was 68%.
With `O=C(Nc1ccccc1)O[C@@H]1[C@@H](OC(=O)Nc2ccccc2)[C@@H](OP(=O)(O)O)[C@@H](OP(=O)(O)O)[C@H](OP(=O)(O)O)[C@H]1OC(=O)Nc1ccccc1` [PP 11-201, D-3,4,5-tri-O-(phenylcarbamoyl)myo-inositol-1,2,6-trisphosphate] the “elasticity of the vessel walls (microscopic investigation)” value [2] was “improved”, the Neointima formation [2] was 0.43 mm^2 and the “Reduction (%) of neointima formation” value [2] was 62%. For the same molecule, the “inhibition (%)” value ([3]; 0.1 μM) was 49%, the “inhibition (%)” value ([3]; 1 μM) was 61% and the “inhibition (%)” value ([3]; 10 μM) was 70%.
`CCCCOC[C@H]1O[C@H](OC)[C@H](OP(=O)(O)O)[C@@H](OP(=O)(O)O)[C@@H]1OP(=O)(O)O` [methyl-6-O-butyl-α-D-glycopyranoside-2,3,4-trisphosphate] was tested, and the “Dose where effects are observed” value [1] was 256 mg/kg.
With “methyl-6-O-butyl-α-D-mannopyranoside-2,3,4-trisphosphate” the “Dose where effects are observed” value [1] was >512 mg/kg.
